The record followed here is patent US9302991B2, “Arylamide derivatives as TTX-S blockers” (RaQualia Pharma Inc., priority 2010, dated 2016).

The test system of experiment [1] is Paw incision-induced static allodynia in rats. In words: Paw incision-induced static allodynia in rats. Conditions: 30 mg/kg per os. It is filed as in vivo, Sprague-Dawley rats. As for the experimental part: Paw Incision-Induced Static Allodynia in Rats
Male Sprague-Dawley rats at 7 weeks old are purchased from Charles River Japan Inc., and housed in groups of two per cage under a 12-h light/dark cycle (lights on at 07:00) with access to food and water ad libitum. Paw incision-induced static allodynia is assessed by VFH test. Surgery is performed according to the procedure described by Brennan et al. (Pain 1996, 64: 493-501). The animals are initially anesthetized with 3-4% isoflurane/O2 mixture in an anesthetic chamber and maintained with 2-3% delivered through a nose cone. The plantar surface of the right hind paw is sterilized with 7.5% povidone-iodine solution. A 1-cm longitudinal incision is made with a number 11 blade, through skin and fascia of the plantar aspect of the paw, starting 0.5 cm from the proximal edge of the heel and extending toward the toes. The plantaris muscle is elevated using forceps and retracted. The muscle origin and insertion remain intact. After hemostasis with gentle pressure, the skin is apposed with 2 sutures of 5-0 nylon. The wound site is covered with Terramycin ointment, and the rats are allowed to recover in their cages with soft bedding. The animals are individually placed in a Plexiglas test chamber on an elevated grid to acclimate for 1 hour before the day of surgery. […] The PWT is measured at the appropriated time after compound administration.

For experiment [2], the target named is T1, human Nav1.3 (hSCN3A) (Homo sapiens, UniProt Q9NY46).
T1 construct: expressed in transfected cells; host or cells: HEK293
T1 sequence (Q9NY46 whole entry): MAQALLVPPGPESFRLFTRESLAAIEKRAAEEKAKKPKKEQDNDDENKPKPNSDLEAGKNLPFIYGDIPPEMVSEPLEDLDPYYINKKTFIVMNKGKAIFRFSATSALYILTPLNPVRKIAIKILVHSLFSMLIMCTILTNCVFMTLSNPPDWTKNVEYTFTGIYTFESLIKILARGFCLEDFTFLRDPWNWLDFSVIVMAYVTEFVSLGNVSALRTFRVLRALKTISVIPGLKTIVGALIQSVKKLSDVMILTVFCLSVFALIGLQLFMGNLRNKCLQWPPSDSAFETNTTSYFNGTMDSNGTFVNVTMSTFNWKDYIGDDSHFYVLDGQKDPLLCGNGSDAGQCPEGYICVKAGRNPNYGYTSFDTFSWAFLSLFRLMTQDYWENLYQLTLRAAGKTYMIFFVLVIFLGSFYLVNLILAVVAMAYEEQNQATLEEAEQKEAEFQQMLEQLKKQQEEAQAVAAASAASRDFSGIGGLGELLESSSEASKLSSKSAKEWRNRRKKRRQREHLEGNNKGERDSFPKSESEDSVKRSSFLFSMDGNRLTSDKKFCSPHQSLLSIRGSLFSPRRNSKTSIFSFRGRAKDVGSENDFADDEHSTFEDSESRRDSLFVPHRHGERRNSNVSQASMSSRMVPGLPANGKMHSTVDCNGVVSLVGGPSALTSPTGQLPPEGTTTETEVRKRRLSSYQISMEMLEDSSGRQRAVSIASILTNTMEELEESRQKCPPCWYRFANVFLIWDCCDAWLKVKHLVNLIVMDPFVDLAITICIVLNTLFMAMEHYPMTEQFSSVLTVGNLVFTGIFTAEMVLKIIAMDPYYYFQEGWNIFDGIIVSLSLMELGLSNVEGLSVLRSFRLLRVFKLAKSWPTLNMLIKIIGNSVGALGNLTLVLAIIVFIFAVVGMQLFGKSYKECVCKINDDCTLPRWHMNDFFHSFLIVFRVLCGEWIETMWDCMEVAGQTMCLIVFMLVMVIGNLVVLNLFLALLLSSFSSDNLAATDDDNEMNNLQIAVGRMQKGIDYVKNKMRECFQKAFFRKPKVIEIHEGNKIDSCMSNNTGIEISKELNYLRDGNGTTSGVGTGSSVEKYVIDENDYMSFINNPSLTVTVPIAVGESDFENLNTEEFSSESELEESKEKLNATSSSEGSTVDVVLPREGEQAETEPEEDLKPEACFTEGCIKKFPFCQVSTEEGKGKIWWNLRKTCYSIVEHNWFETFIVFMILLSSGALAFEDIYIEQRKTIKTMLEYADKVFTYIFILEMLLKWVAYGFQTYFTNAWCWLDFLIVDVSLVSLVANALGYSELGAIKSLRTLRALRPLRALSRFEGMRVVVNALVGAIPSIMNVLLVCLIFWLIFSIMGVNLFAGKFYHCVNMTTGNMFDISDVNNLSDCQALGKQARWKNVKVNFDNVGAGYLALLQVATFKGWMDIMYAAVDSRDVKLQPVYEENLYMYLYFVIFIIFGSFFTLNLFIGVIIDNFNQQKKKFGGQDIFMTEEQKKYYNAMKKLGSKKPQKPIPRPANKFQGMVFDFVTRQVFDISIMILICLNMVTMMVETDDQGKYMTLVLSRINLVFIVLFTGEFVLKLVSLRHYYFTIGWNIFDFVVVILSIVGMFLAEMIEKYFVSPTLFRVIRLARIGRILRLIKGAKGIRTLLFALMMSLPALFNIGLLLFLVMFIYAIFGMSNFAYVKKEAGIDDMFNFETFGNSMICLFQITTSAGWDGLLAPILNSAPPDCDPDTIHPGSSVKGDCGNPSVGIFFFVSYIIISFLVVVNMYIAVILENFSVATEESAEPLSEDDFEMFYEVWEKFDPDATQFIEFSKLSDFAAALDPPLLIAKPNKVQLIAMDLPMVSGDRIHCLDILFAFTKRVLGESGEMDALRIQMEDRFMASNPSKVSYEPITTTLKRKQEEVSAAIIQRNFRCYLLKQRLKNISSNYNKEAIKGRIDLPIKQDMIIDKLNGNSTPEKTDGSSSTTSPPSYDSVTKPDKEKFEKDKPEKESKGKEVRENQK
In words: Electrophysiology assay for Navs, whole cell patch clamp, Nav1.3. It is filed as cell-based. Conditions: Kinact, dissociation constant for the inactivated state, read-out: activities (Ki) against Nav1.3. On the procedure: Electrophysiology Assay for Navs
Whole cell patch clamp recording is used to assess the efficacy or selectivity of Na channel blocker on human Nav1.3 (hSCN3A) expressing HEK293 cells or human Nav1.7 (hSCN9A) expressing CHO cells. Human Nav1.3 expressing HEK293 cells are grown in growth media which comprised: DMEM, 10% heat-inactivated FBS (Hyclone Laboratories Inc), 100 microgram/mL Penicillin/100 U/mL Streptomycin, 150 microgram/mL Zeocin, 3 microgram/mL Geneticin. Human Nav1.7 expressing CHO cells are grown in growth media which comprised: HAM/F-12, 9% heat-inactivated FBS (Hyclone Laboratories Inc), 100 microgram/mL Penicillin/100 U/mL Streptomycin, 100 microgram/mL Hygromycin.
Na channel expressing cells are dissociated by 0.05% Trypsine-EDTA, and then seeded on cover glass for 24-48 hr. […]
The normalized steady-state inactivation curve is constructed using 2 sec (for vehicle) or 60 sec (for drugs) conditioning pulse to different potentials followed immediately by the test pulse to −10 mV. […] The affinity of drugs to resting state of Na channels (Kresting or Kr) is assessed by 30 msec test pulse from a negative holding potential of −120 or −130 mV, where virtually all channels are in the resting state. Kr value is calculated by a conventional 1:1 binding model: Kresting(Kr)={[drug]Imax,drug/(Imax,control−Imax,drug)} […]
In general terms: Patch clamp records ionic current or voltage across a cell membrane.

For the molecule `CC(=O)Nc1cc(C(=O)NC(C)c2ccc(OCC(F)(F)F)nc2)ccn1` (single isomer, unassigned; (-)) [Example 1, (−)-2-acetamido-N-(1-(6-(2,2,2-trifluoroethoxy)pyridin-3-yl)ethyl)isonicotinamide], the “activity in paw incision-induced static allodynia (PWT)” value in experiment [1] was “significant activity”. The Ki in experiment [2] is 1.5 µM.
